Results on 3 compounds are retold here after article PMC8165160, “Substrate Specificities and Inhibition Pattern of the Solute Carrier Family 10 Members NTCP, ASBT and SOAT” (Frontiers in Molecular Biosciences, 2021).

One assay concerns the target T1, ASBT (Homo sapiens, UniProt Q12908).
T1 construct: The full-length open reading frames of NTCP, ASBT, and SOAT were cloned; expressed in transfected cells; host or cells: Flp-In T-REX HEK293 (ASBT-HEK293), tetracycline-induced
T1 sequence (Q12908 1-348): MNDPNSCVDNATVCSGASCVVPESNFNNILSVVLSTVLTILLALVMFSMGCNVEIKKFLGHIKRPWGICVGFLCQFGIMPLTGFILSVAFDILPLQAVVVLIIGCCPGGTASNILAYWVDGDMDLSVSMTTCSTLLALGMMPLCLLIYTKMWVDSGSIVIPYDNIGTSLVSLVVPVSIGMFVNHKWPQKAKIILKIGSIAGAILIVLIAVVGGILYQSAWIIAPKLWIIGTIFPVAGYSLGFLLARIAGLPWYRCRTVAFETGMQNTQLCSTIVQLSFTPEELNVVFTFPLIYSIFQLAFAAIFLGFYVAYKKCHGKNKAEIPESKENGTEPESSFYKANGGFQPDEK
Briefly: Substrate screening: sodium-dependent uptake of radiolabeled compounds in ASBT-HEK293 cells. The assay is classed as cell-based. Conditions: radiolabeled bile acids 1 µM, 30 min, ASBT-HEK293, vs sodium-free control. As to the method:
(§1) Stably SLC10 transporter transfected NTCP-HEK293, ASBT-HEK293, SOAT-HEK293 cells and the HEK293-FlpIn maternal cell line were seeded on 24-well plates (if not stated otherwise for individual assays). Well plates were coated with poly-D-lysine prior to seeding of 125,000 cells per well. Cells were grown with 1 ml of standard medium per well with or without tetracycline ([…]) for 72 h to induce carrier expression before respective assays were started. HEK293-FlpIn cells were cultivated with standard medium and served as control.
(§2) Uptake experiments were initiated by replacing the preincubation buffer by 500 μL transport buffer containing the radiolabeled test compound and were performed at 37°C. Transport was terminated by removing the transport buffer and washing five-times with ice-cold PBS. Cell monolayers were lysed in 1 N NaOH with 0.1% SDS and the cell-associated radioactivity was determined by liquid scintillation counting.
(§3) FIGURE 1 Comparative substrate screening for bile acids and sulfated steroids in NTCP-, ASBT-, and SOAT-HEK293 cells. Transport assays were performed with the indicated substrates in NTCP-HEK293, ABST-HEK293, SOAT-HEK293, and HEK293-FlpIn cells. Cells were washed and equilibrated with Na^+-containing transport buffer (filled bars) or with Na^+-free transport buffer (open bars) at 37°C. For uptake, cells were incubated with radiolabeled steroid compounds at a final concentration of 200 nM in Na^+-containing or Na^+-free transport buffer for 10 min. Radiolabeled bile acids were used at 1 µM concentrations and transport was analyzed over 30 min. HEK293-FlpIn cells served as additional controls. After the indicated time intervals, cells were washed with ice-cold PBS, lysed and subjected to liquid scintillation counting. […] 3-OH, trihydroxylated BAs; 2-OH, dihydroxylated BAs; 1-OH, monohydroxylated BAs.

The target in assay [1] is T2, SOAT (Homo sapiens, UniProt Q3KNW5).
T2 construct: The full-length open reading frames of NTCP, ASBT, and SOAT were cloned; expressed in transfected cells; host or cells: Flp-In T-REX HEK293 (SOAT-HEK293), tetracycline-induced
T2 sequence (Q3KNW5 1-377): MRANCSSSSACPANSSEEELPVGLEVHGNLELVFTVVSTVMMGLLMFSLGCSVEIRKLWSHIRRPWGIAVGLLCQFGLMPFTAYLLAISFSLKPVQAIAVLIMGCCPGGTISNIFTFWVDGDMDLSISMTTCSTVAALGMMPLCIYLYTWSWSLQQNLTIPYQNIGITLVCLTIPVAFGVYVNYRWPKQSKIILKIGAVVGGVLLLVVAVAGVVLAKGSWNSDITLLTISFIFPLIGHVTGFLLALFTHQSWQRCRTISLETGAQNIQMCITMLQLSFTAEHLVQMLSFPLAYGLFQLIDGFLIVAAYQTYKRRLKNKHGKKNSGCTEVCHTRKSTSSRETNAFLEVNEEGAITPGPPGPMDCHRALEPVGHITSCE
Briefly: Substrate screening: sodium-dependent uptake of radiolabeled compounds in SOAT-HEK293 cells. Conditions: SOAT-HEK293, vs sodium-free control. The class given is cell-based. As to the method:
as §1, §2, §3

The next assay has as its system HDV. Conditions: NTCP expressing HepG2 hepatoma cells, trans-inhibitory effect; ref Lowjaga et al., 2021; cited from earlier work.
Assay [2] addresses T3, NTCP (Homo sapiens, UniProt Q14973).
T3 sequence (Q14973 1-349): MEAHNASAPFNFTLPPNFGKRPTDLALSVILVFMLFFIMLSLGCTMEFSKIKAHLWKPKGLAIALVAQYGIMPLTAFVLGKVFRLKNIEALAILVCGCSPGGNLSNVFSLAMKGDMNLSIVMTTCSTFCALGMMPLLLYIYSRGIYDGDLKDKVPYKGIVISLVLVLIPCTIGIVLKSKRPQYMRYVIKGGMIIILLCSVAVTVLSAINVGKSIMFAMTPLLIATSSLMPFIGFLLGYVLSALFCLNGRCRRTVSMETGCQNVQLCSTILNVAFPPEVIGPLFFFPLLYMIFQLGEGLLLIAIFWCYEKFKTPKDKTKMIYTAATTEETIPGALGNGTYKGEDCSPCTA
Briefly: Transport inhibition in NTCP-HEK293 cells. To be noted: substrate inhibitors, 1 min after 5 min preincubation.

The target of assay [3] is T3, NTCP. Briefly: Binding of fluorescent myr-preS1-Al633 peptide to NTCP-HEK293 cells. Further details: The full-length open reading frames of NTCP, ASBT, and SOAT were cloned; expressed in transfected cells; host or cells: Flp-In T-REX HEK293 (NTCP-HEK293), tetracycline-induced.
Procedure: NTCP-HEK293 cells were seeded into 24-well-dishes as described above. For every set of induced wells an equal number of not-induced wells were used as respective background controls. Cells were washed three times with PBS and then preincubated with sodium transport buffer supplemented with MEM-amino acid solution (ThermoFisher) at 1:50 dilution at 37°C for 5 min. The fluorescent myr-preS1-Al633 peptide was added with a final concentration of 10 nM and binding experiments were performed over 10 min at 37°C. […] For calculation of the NTCP-specific binding signal, the mean background signal from the not-induced cells was subtracted. Net binding rates in the absence of any inhibitor were set to 100%.
(B) Binding of the fluorescent myr-preS1-Al633 peptide was analyzed in NTCP-HEK293 cells in the presence of increasing concentrations of TC, DHEAS, or TLC. […] Fluorescence was quantified by a fluorescence reader and values are expressed as percentage of control.
Assay [4] addresses T2, SOAT. Further details: method as in Geyer et al. (2007). To be noted: uptake via SOAT, same SOAT-HEK293 cell line; ref Geyer et al. (2007); cited from earlier work.
Setting [5] is: NTCP IC50, substrate [3H]DHEAS, 200 nM [3H]DHEAS.
[6] abbreviates: NTCP IC50, substrate [3H]TC, 200 nM [3H]TC.
Setting [7] is: NTCP IC50, substrate [3H]TLC, 200 nM [3H]TLC.

pIC50: −log10 of the molar value. Structures can show the parent of a compound that is named as a salt.

One may read the pIC50 as the IC50 on a negative log10 scale, so that one unit is a factor of ten.

On to `C[C@H](CCC(=O)NCCS(=O)(=O)O)[C@H]1CC[C@H]2[C@@H]3[C@H](O)C[C@@H]4C[C@H](O)CC[C@]4(C)[C@H]3C[C@H](O)[C@]12C` [Taurocholic acid], for which the “Transport activity grading ASBT (mean uptake)” value on ASBT is “++ (“++” for values between 500 and 1000)”.
Turning to `C[C@H](CCC(=O)NCCS(=O)(=O)O)[C@H]1CC[C@H]2[C@@H]3CC[C@@H]4C[C@H](O)CC[C@]4(C)[C@H]3CC[C@]12C` [Taurolithocholic acid], the “Transport activity grading ASBT (mean uptake)” value on ASBT is on record as “+++ (“+++” for values above 1000 pmol/mg protein/30 min)”. Moreover, the “Transport activity grading SOAT (mean uptake)” value at SOAT [1] (radiolabeled bile acids 1 µM, 30 min) is “++ (“++” for values between 500 and 1000)”. Besides, in the assay on HDV, the “in vitro HDV infection” value was “inhibited in vitro HDV infection”. For the same compound, the pIC50 is 5.74 at NTCP [2] (setting [5]); 5.77 against NTCP [2] (setting [6]); 5.85 against NTCP [2] (setting [7]); 5.37 on NTCP [3] (10 nM myr-preS1-Al633, 10 min, 37°C, NTCP-HEK293, read-out: IC50 for inhibition of myr-preS1 peptide binding to NTCP).
`C[C@]12CC[C@H](OS(=O)(=O)O)CC1=CC[C@@H]1[C@@H]2CC[C@]2(C)C(=O)CC[C@@H]12` [DHEAS, Dehydroepiandrosterone sulfate]: the “Transport activity grading SOAT (mean uptake)” value at SOAT [1] (radiolabeled steroid compounds 200 nM, 10 min) is “++ (“++” for values between 10 and 100)”. The “Apparent K m” value on SOAT [4] is listed as 28.7 ± 3.9 µM. Also, the V max at SOAT [4] is given as 1899 ± 81 pmol/mg protein/min. Moreover, the pIC50 was 5.47 on NTCP [2] (setting [5]), 4.67 at NTCP [2] (setting [6]), 3.36 against NTCP [2] (setting [7]) and 4.28 at NTCP [3].
